Among the test systems are DLD-1 colon; HOP-18 NSCLC; XF 498 CNS; DMS 273 small cell lung; DMS 114 small cell lung; LXFL 529 NSCLC; M19-MEL melanoma; MDA-N; RXF-631 renal.
Common to all, as to assay: growth of human tumour cells (NCI), 48 h

Several values for one entry are separate records, joined by “and”; a condition that tells them apart may be missing. Equal values may be shown once.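 These data come from cells grown in 96-well plates and exposed to compound for 48 hours at five concentrations. The concentration for 50% growth inhibition is given as GI50. TGI is the concentration that stops growth completely.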

For `CC(C)c1cc(C(=O)[O-])c(O)c(C(C)C)c1.CC(C)c1cc(C(=O)[O-])c(O)c(C(C)C)c1.CC(C)c1cc(C(=O)[O-])c(O)c(C(C)C)c1.CC(C)c1cc(C(=O)[O-])c(O)c(C(C)C)c1.CC(C)c1cc(C(=O)[O-])c(O)c(C(C)C)c1.CC(C)c1cc(C(=O)[O-])c(O)c(C(C)C)c1.[Cu+2].[Mn+2].[Mn+2]`, the GI50 with DLD-1 colon is 17.8 µM; in the test on HOP-18 NSCLC, 13.3 µM; in the test with XF 498 CNS, 30.2 µM; in the test on DMS 273 small cell lung, 22.4 µM; with DMS 114 small cell lung, 17.8 µM; in the test on LXFL 529 NSCLC, 19.6 µM. In addition, the GI50 in the test on M19-MEL melanoma is 5.67 µM. Besides, the TGI in the test with DLD-1 colon was 35.9 µM; in the test with HOP-18 NSCLC, 29.1 µM; in the test on XF 498 CNS, 71.5 µM; in the test with DMS 273 small cell lung it was more than 100 µM; with DMS 114 small cell lung, 34.6 µM; in the test on LXFL 529 NSCLC it was 46.3 µM. This compound also yielded a TGI in the test on M19-MEL melanoma of 18.7 µM.

As to `CC(=O)OC1(C#N)CC2OC1C1N=NN(C(=O)OC(C)(C)C)C21` (stereo unspecified), the TGI in the test on DLD-1 colon was more than 31.6 µM; in the test with HOP-18 NSCLC, more than 100 µM; in the test with XF 498 CNS, more than 100 µM; in the test on DMS 273 small cell lung it was more than 100 µM; with DMS 114 small cell lung, more than 74.9 µM; in the test on LXFL 529 NSCLC, more than 100 µM. Moreover, the TGI with M19-MEL melanoma is more than 100 µM.

For `CN(C)C1C(=O)C(C(N)=O)=C(O)C2(O)C(=O)C3=C(O)c4c(O)cccc4C(C)(O)C3CC12` (stereo unspecified), in the test with MDA-N, the GI50 is 17.8 µM and > 100 µM; the TGI was 38.9 µM and > 100 µM.

With `COc1c(Cl)[c]([Hg][O]C(C)=O)c(NCC(C)=O)c(OC)[c]1[Hg][O]C(C)=O`, the GI50 with DLD-1 colon is 12.2 µM; with RXF-631 renal, 1.22 µM; with DMS 114 small cell lung, 4.12 µM; in the test on LXFL 529 NSCLC it was 1.06 µM; with M19-MEL melanoma, 14.8 µM. In addition, the TGI amounted to 26.8 µM in the test on DLD-1 colon; 3.88 µM with RXF-631 renal; 26.9 µM with DMS 114 small cell lung; 3.68 µM with LXFL 529 NSCLC; 30.1 µM in the test on M19-MEL melanoma.

For `CC(C)C1NC(=O)[C@H](C)OC(=O)[C@@H](C(C)C)NC(=O)[C@@H](C)OC(=O)C(C(C)C)NC(=O)[C@H](C)OC1=O` (stereo partly specified), the TGI with DLD-1 colon, in the test with HOP-18 NSCLC, in the test with XF 498 CNS, with DMS 273 small cell lung, in the test on DMS 114 small cell lung and in the test on LXFL 529 NSCLC was more than 100 µM in each case. In addition, the TGI with M19-MEL melanoma was more than 100 µM.

`Clc1nc(-c2ccccc2)nc(Cl)c1Cl` showed a TGI in the test with MDA-N of 26.6 µM.

With `CCC1(N)C(=O)OCc2c1cc1n(c2=O)Cc2cc3ccccc3nc2-1` (stereo unspecified), in the test with MDA-N, the GI50 is 21.8 µM and the TGI was more than 100 µM.

As to `CCOc1ccc(N=Cc2ccc3ccccc3n2)cc1`, the TGI in the test on DLD-1 colon, with HOP-18 NSCLC, in the test on XF 498 CNS, with DMS 273 small cell lung, with RXF-631 renal and in the test on LXFL 529 NSCLC was more than 100 µM throughout. Also, the TGI in the test on M19-MEL melanoma was more than 100 µM.

As to `CCCCCN(CCCCC)C(=O)[C@H](CCC(=O)OCc1ccccc1)NC(=O)c1cc2ccccc2[nH]1`, the TGI in the test with DLD-1 colon, in the test on HOP-18 NSCLC, with DMS 273 small cell lung, in the test on RXF-631 renal, with DMS 114 small cell lung and in the test with LXFL 529 NSCLC was more than 100 µM each time.

Consider `CCCCCCC/C=C1\CCC(CN(C)C)C1=O` (stereo unspecified), for which the TGI was 20.9 µM in the test with DLD-1 colon; 26.8 µM in the test on MDA-N; 31.4 µM in the test on HOP-18 NSCLC; 35.4 µM in the test with XF 498 CNS; more than 71.4 µM with RXF-631 renal; 20.8 µM in the test on LXFL 529 NSCLC.

With `CCC(C)(C)NS(=O)(=O)c1ccccc1`, the TGI with DLD-1 colon, with XF 498 CNS, in the test with DMS 273 small cell lung, in the test on DMS 114 small cell lung, in the test on LXFL 529 NSCLC and with M19-MEL melanoma was more than 100 µM in each case.

`COc1ccc2c(c1OC)C(C=C(c1ccccc1)c1ccccc1)CN(C)C2` (stereo unspecified): the TGI in the test on DLD-1 colon is 76.8 µM; with HOP-18 NSCLC it was 67.7 µM; in the test with DMS 273 small cell lung, 34.9 µM; in the test on RXF-631 renal it was 66.4 µM; in the test on DMS 114 small cell lung, 29.3 µM; with LXFL 529 NSCLC, 34.7 µM. The same compound returned a TGI with M19-MEL melanoma of 81 µM.

With `COc1cc(=O)oc(/C=C/C=C/C=C/C(C)=C\C2(C)OC(C)C(C)(O)C2O)c1C` (stereo unspecified), the TGI with MDA-N was more than 100 µM.

With `C/C(=N\NS(=O)(=O)c1c(C)cc(C)cc1C)c1ccc[n+]([O-])n1`, the TGI in the test with DLD-1 colon came out at 21 µM; in the test on HOP-18 NSCLC, 47.3 µM; in the test with DMS 273 small cell lung, 34.8 µM; in the test with RXF-631 renal it was 93 µM; in the test with DMS 114 small cell lung, 36.8 µM; in the test with LXFL 529 NSCLC, 23.4 µM. For the same compound, the TGI in the test on M19-MEL melanoma is 29 µM.

With `COC(=O)c1ccc(/C=C/S(=O)(=O)c2ccccc2)cc1`, the TGI in the test on DLD-1 colon, in the test with XF 498 CNS, with DMS 273 small cell lung, in the test on RXF-631 renal, in the test with DMS 114 small cell lung and in the test with LXFL 529 NSCLC was more than 100 µM in each case. Besides, in the test with M19-MEL melanoma, the TGI is more than 100 µM.

As to `Cn1cc2ccccc2c1-c1nc(F)nc(Nc2ccc(N)cc2)n1`, the TGI came to 34.9 µM in the test with DLD-1 colon; 30 µM in the test on XF 498 CNS; 25.6 µM in the test with DMS 273 small cell lung; 38.2 µM with RXF-631 renal; 38.1 µM in the test on DMS 114 small cell lung; 30.9 µM in the test on LXFL 529 NSCLC. The compound further displayed a TGI in the test on M19-MEL melanoma of 25.2 µM.

Regarding `CC1=CC2=C(C#N)C(=O)OC2(C)C(c2ccccc2)C1` (stereo unspecified), the TGI in the test with MDA-N is more than 100 µM.

For the compound `Clc1ccc(COC(Cn2ccnc2)c2ccc(Cl)cc2Cl)c(Cl)c1` (stereo unspecified), the TGI in the test on MDA-N is 17.5 µM and 15.6 µM.

Turning to `Cc1ccc(-c2cc(=O)c3cc(C)c(C)c(C(=O)O)c3o2)cc1[N+](=O)[O-]`, the TGI with DLD-1 colon, in the test on HOP-18 NSCLC, in the test on DMS 273 small cell lung, in the test with DMS 114 small cell lung, with LXFL 529 NSCLC and in the test with M19-MEL melanoma was more than 100 µM each time.

For the compound `CC(CCC(=O)O)c1ccc(Br)cc1` (stereo unspecified), the TGI with DLD-1 colon, in the test on HOP-18 NSCLC, in the test with DMS 273 small cell lung, in the test on DMS 114 small cell lung, with LXFL 529 NSCLC and in the test on M19-MEL melanoma was more than 100 µM throughout.

For the origin of these results see PubChem BioAssay (NCI).
